In US6225307A, “Viral treatment” (priority 2000, dated 2001):

Assays:
HIV-1 protease = target: T1, HIV-1 protease (Human immunodeficiency virus type 1 group M subtype B, UniProt P04585); assay: Protease inhibition assay (fluorometric method); type: biochemical
T1 construct: fluorometric HIV-1 protease assay; purchased Bachem
Experimental: Protease inhibition is evaluated using a fluorometric method. Enzyme (Bachem) is diluted to 116 μgm/ml in 50 mM NaOAC, 5 mM DTT, 2 mM EDTA, 10% glycerol (pH 5.0) and stored as 10 μl samples at -20° C., HIV protease substrates I (Molecular Probes) is diluted to a working concentration of 0.32 nmoles/μl. Enzyme (20 μl) and drug (20 μl) are added to each well of a microtiter plate as appropriate. Positive and negative control are evaluated in parallel. Fluorescence is quantitated on Labsystems Fluroskan II using 355 nm/460nm at 37° C. at time zero and at 30 minute intervals for 2 hours. In instances where autofluorescence precludes use of the fluorometric HIV-1 protease assay or confirmation of a result is required, an HPLC based protease assay can be employed.

HIV-1 cell line, CEMIIIB = assay: Long term in vitro study, CEMIIIB cells, reverse transcriptase analysis; type: cell-based; set-up: Reverse transcriptase data: unit not given here
Experimental: A microtiter-based reveres transcriptase (RT) reaction is utilized (Buckheit et al (1991) AIDS Research and Human Retroviruses 7:295-302). Tritiated thymidine triphosphate (NEN)(TTP) is resuspended in distilled water at 5 Ci/ml. Poly rA and oligo dT are prepared as a stock solution which is kept at -20° C. The RT reaction buffer is prepared fresh on a daily basis and consists of 125 μl 1M EGTA, 125 μl water, 125 μl Triton X-100, 50 μl Tris (pH 7.4), 50 μl MDDT, and 40 μl 1M MgCl2. These three solutions are mixed together in a ratio of 1 part TTP, 2.5 parts poly rA:oligo dT, 2.5 parts reaction buffer and 4 parts distilled water. Ten microliters of this reaction mixture is placed in a round bottom microtiter place and 15 μl of virus containing supernatant is added and mixed. The plate is incubated at 37° C. and incubated for 60 minutes. Following reaction, the reaction volume is spotted onto filter mats, washed 6 times for 5 minutes each in a 5% sodium phosphate buffer, 2 times for 1 minute each in distilled water, 2 times for 1 minute each in 70% ethanol, and then dried. The dried filter mat is placed in a plastic sample bag, Betaplate scintillation fluid is added and the bag is heat sealed. Incorporated radioactivity is quantified utilizing a Wallac Microbeta scintillation counter.
Acute infection of most established human cell lines with HIV- I results in the eventual establishment of a constitutive virus-producing chronically infected cell line. The cells can be passaged for long periods of time in culture without loss of virus production. These cells may be utilized to evaluate the effects of anti-HIV compounds on syncytium formation or to evaluate the effects of anti-HIV compounds on levels of virus production from these cells. […] Each of the cells contains an integrated HIV genome or provirus. Chronically infected CEM, H9 and U937 cell lines have been prepared and cultured by Southern Research Institute, Frederick Md. and are available from them.
CEM-SS cells chronically infected with HIV isolate, for example SKI (CEM-SKI) are cultured in RPM1640 tissue culture medium supplemented with 10% fetal bovine serum and antibiotics. Selection is performed by culturing the cells in the presence of the compound to be tested in T25 flasks. CEM-SKI or other infected cells with no added drug are used as the control cells. Cells are allowed to grow to a density of approximately 1×10^6 cells/ml and are then passaged at a 1:10 dilution. After a period of time, usually one week intervals of drug treatment, cells are evaluated to determine if the inhibitory activity of the compound has been affected by treatment of the cells with either compounds. The drug concentration in the flask is then increased two-fold and the cells maintained as above.
The cell populations contain integrated copies of the HIV genome and constitutively produce HIV at relatively high levels or are latently infected and only produce virus after stimulation with phorbol esters, tumor necrosis factor or IL6(U1 and ACH2). Reductions in virus products were observed when quantifying supernatant reverse transcriptase activity,
Toxicity Values are measured by XTT and activity of the compound in the tests is measured by a Reverse Transcriptase analysis.
A long term in vitro study of 3-hexahydro-3-ethyl-1-methyl-2-oxo-1H-azepin-3-yl)phenyl ester of 4-chlorophenyl carbamic acid against an HIV-1 cell line, CEMIIIB was conducted at three different levels. The results with CEIIIB cells were reported at weekly intervals. The CEMIIIB is a […] of the CEMSS cell line and is a chronic HIV cell line.

Q: Which results are given for `CCC1(c2cccc(OC(=O)Nc3ccc(Cl)cc3)c2)CCCCN(C)C1=O` (stereo not shown) [(4-chlorophenyl)-carbamic acid, 3-(hexahydro-3-ethyl-1-methyl-2-oxo-1H-azepin-3-yl) 2 phenyl ester]?
A: EC50 (HIV-1 protease): > 249 µM; Protease inhibition, mean (HIV-1 protease; 0.1 nM): 27.9 fluorometric units; Protease inhibition, sample 1 (HIV-1 protease; 0.1 nM): 24.7 fluorometric units; Protease inhibition, sample 2 (HIV-1 protease; 0.1 nM): 31.2 fluorometric units; remaining activity at 0.0001 µM (HIV-1 protease; 0.1 nM, read-out: % ND control): 98.2%; Protease inhibition, mean (HIV-1 protease; 1 nM): 27.4 fluorometric units; Protease inhibition, sample 1 (HIV-1 protease; 1 nM): 27.4 fluorometric units; Protease inhibition, sample 2 (HIV-1 protease; 1 nM): 27.5 fluorometric units; remaining activity at 0.001 µM (HIV-1 protease; 1 nM, read-out: % ND control): 96.4%; Protease inhibition, mean (HIV-1 protease; 10 nM): 26.8 fluorometric units; Protease inhibition, sample 1 (HIV-1 protease; 10 nM): 28.5 fluorometric units; Protease inhibition, sample 2 (HIV-1 protease; 10 nM): 25.1 fluorometric units; remaining activity at 0.01 µM (HIV-1 protease; 10 nM, read-out: % ND control): 94.2%; Protease inhibition, mean (HIV-1 protease; 100 nM): 30.0 fluorometric units; Protease inhibition, sample 1 (HIV-1 protease; 100 nM): 29.3 fluorometric units; Protease inhibition, sample 2 (HIV-1 protease; 100 nM): 30.7 fluorometric units; remaining activity at 0.1 µM (HIV-1 protease; 100 nM, read-out: % ND control): 105%; activity as a protease inhibitor (HIV-1 protease; screened using a fluorometric method): did not show activity; Reverse transcriptase data, continued test (HIV-1 cell line, CEMIIIB): data remained consistent; Reverse transcriptase data (HIV-1 cell line, CEMIIIB; 7 μg/ml, Day 4): 1643; Reverse transcriptase data (HIV-1 cell line, CEMIIIB; 7 μg/ml, Day 11): 1294; Reverse transcriptase data (HIV-1 cell line, CEMIIIB; 7 μg/ml, Day 18): 1521; Reverse transcriptase data (HIV-1 cell line, CEMIIIB; 7 μg/ml, Day 25): 1725; Reverse transcriptase data (HIV-1 cell line, CEMIIIB; 7 μg/ml, Day 32): 1239; Reverse transcriptase data (HIV-1 cell line, CEMIIIB; 7 μg/ml, Day 39): 1341; Reverse transcriptase data (HIV-1 cell line, CEMIIIB; 7 μg/ml, Day 46): 1694; Reverse transcriptase data (HIV-1 cell line, CEMIIIB; 7 μg/ml, Day 53): 1287; Reverse transcriptase data (HIV-1 cell line, CEMIIIB; 7 μg/ml, Day 60): 1631; Reverse transcriptase data (HIV-1 cell line, CEMIIIB; 7 μg/ml, Day 67): 1245; Reverse transcriptase data (HIV-1 cell line, CEMIIIB; 7 μg/ml, Day 71): 1483; Reverse transcriptase data (HIV-1 cell line, CEMIIIB; 7 μg/ml, Day 74): 1502; Reverse transcriptase data (HIV-1 cell line, CEMIIIB; 7 μg/ml, Day 88): 7383; Reverse transcriptase data (HIV-1 cell line, CEMIIIB; 7 μg/ml, Day 95): 5512; Reverse transcriptase data (HIV-1 cell line, CEMIIIB; 7 μg/ml, Day 102): 8512; Reverse transcriptase data (HIV-1 cell line, CEMIIIB; 7 μg/ml, Day 109): 58104; Reverse transcriptase data (HIV-1 cell line, CEMIIIB; 15 μg/ml, Day 4): 1526; Reverse transcriptase data (HIV-1 cell line, CEMIIIB; 15 μg/ml, Day 11): 1168; Reverse transcriptase data (HIV-1 cell line, CEMIIIB; 15 μg/ml, Day 18): 1241; Reverse transcriptase data (HIV-1 cell line, CEMIIIB; 15 μg/ml, Day 25): 1361; Reverse transcriptase data (HIV-1 cell line, CEMIIIB; 15 μg/ml, Day 32): 1168; Reverse transcriptase data (HIV-1 cell line, CEMIIIB; 15 μg/ml, Day 39): 1162; Reverse transcriptase data (HIV-1 cell line, CEMIIIB; 15 μg/ml, Day 46): 1084; Reverse transcriptase data (HIV-1 cell line, CEMIIIB; 15 μg/ml, Day 53): 902; Reverse transcriptase data (HIV-1 cell line, CEMIIIB; 15 μg/ml, Day 60): 1310; Reverse transcriptase data (HIV-1 cell line, CEMIIIB; 15 μg/ml, Day 67): 1093; Reverse transcriptase data (HIV-1 cell line, CEMIIIB; 15 μg/ml, Day 71): 1056; Reverse transcriptase data (HIV-1 cell line, CEMIIIB; 15 μg/ml, Day 74): 763; Reverse transcriptase data (HIV-1 cell line, CEMIIIB; 15 μg/ml, Day 88): 4415; Reverse transcriptase data (HIV-1 cell line, CEMIIIB; 15 μg/ml, Day 95): 3205; Reverse transcriptase data (HIV-1 cell line, CEMIIIB; 15 μg/ml, Day 102): 6902; Reverse transcriptase data (HIV-1 cell line, CEMIIIB; 15 μg/ml, Day 109): 60170; Reverse transcriptase data (HIV-1 cell line, CEMIIIB; 30 μg/ml, Day 4): 602; Reverse transcriptase data (HIV-1 cell line, CEMIIIB; 30 μg/ml, Day 11): 265; Reverse transcriptase data (HIV-1 cell line, CEMIIIB; 30 μg/ml, Day 18): 581; Reverse transcriptase data (HIV-1 cell line, CEMIIIB; 30 μg/ml, Day 25): 496; Reverse transcriptase data (HIV-1 cell line, CEMIIIB; 30 μg/ml, Day 32): 268; Reverse transcriptase data (HIV-1 cell line, CEMIIIB; 30 μg/ml, Day 39): 381; Reverse transcriptase data (HIV-1 cell line, CEMIIIB; 30 μg/ml, Day 46): 562; Reverse transcriptase data (HIV-1 cell line, CEMIIIB; 30 μg/ml, Day 53): 308; Reverse transcriptase data (HIV-1 cell line, CEMIIIB; 30 μg/ml, Day 60): 241; Reverse transcriptase data (HIV-1 cell line, CEMIIIB; 30 μg/ml, Day 67): 301; Reverse transcriptase data (HIV-1 cell line, CEMIIIB; 30 μg/ml, Day 71): 321; Reverse transcriptase data (HIV-1 cell line, CEMIIIB; 30 μg/ml, Day 74): 202; Reverse transcriptase data (HIV-1 cell line, CEMIIIB; 30 μg/ml, Day 88): 370; Reverse transcriptase data (HIV-1 cell line, CEMIIIB; 30 μg/ml, Day 95): 299; Reverse transcriptase data (HIV-1 cell line, CEMIIIB; 30 μg/ml, Day 102): 928; Reverse transcriptase data (HIV-1 cell line, CEMIIIB; 30 μg/ml, Day 109): 2019
